Patent publication US20240132531A1, “NOVEL GALACTOSIDE INHIBITOR OF GALECTINS” (GALECTO BIOTECH AB, priority 2020, published 2024)

Assays:
[1] = molecular target: galectin-3 (Homo sapiens, UniProt P17931); test: Fluorescence anisotropy assay, affinity for galectin-3; format: binding; settings: compound as inhibitor of the interaction between galectin and a fluorescein tagged saccharide probe; read-out: Gal-3 Kd
Procedure: (§1) The affinity of Example 1-39 for galectins were determined by a fluorescence anisotropy assay where the compound was used as an inhibitor of the interaction between galectin and a fluorescein tagged saccharide probe as described Sarme, P., Kahl-Knutsson, B., Huflejt, M., Nilsson, U. J., and Leffler H. (2004) Fluorescence polarization as an analytical tool to evaluate galectin-ligand interactions. Anal. Biochem. 334: 36-47, (Sarme et al., 2004) and Monovalent interactions of Galectin-1 By Salomonsson, Emma; Larumbe, Amaia; Tejler, Johan; Tullberg, Erik; Rydberg, Hanna; Sundin, Anders; Khabut, Areej; Frejd, Torbjorn; Lobsanov, Yuri D.; Rini, James M.; et al, From Biochemistry (2010), 49(44), 9518-9532, (Salomonsson et al., 2010).

[2] = molecular target: galectin-1 (Homo sapiens, UniProt P09382); test: Fluorescence anisotropy assay, affinity for galectin-1; format: binding; settings: compound as inhibitor of the interaction between galectin and a fluorescein tagged saccharide probe; read-out: Gal-1 Kd
galectin-1, sequence (P09382 whole entry): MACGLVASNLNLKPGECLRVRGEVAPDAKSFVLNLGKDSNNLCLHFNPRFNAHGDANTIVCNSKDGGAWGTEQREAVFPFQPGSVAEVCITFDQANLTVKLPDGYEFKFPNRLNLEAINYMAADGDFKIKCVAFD
Procedure: as §1

galectin-3, sequence (P17931 whole entry): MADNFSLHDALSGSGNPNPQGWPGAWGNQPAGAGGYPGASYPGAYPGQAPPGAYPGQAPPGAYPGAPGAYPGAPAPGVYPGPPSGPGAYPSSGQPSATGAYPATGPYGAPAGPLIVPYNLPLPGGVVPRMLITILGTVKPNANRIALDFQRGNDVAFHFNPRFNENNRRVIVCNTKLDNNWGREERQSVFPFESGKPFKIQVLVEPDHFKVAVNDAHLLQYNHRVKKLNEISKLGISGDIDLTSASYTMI

SMILES | Kd [1] [nM] | Kd [2] [nM]
COC1C(n2cc(-c3nc(Cl)cs3)nn2)[C@@H](O)C(CO)O[C@H]1c1ccnn1-c1cc(Cl)ccc1C(F)(F)F (stereo partly drawn) [Example 1, 1-{5-{3-[4-(4-Chlorothiazol-2-yl)-1H-1,2,3-triazol-1-yl]-3-deoxy-2-O-methyl-β-D-galactopyranosyl}-1H-1,2-pyrazol-1-yl}-5-chloro-2-(trifluoromethyl)benzene] | 450 | 36
COC1C(n2cc(-c3nccs3)nn2)[C@@H](O)C(CO)O[C@H]1c1ccnn1-c1cc(Cl)ccc1C(F)(F)F (stereo partly drawn) [Example 2, 5-Chloro-1-{5-{3-deoxy-2-O-methyl-3-[4-(2-thiazolyl)-1H-1,2,3-triazol-1-yl]-β-D-galactopyranosyl}-1H-1,2-pyrazol-1-yl}-2-(trifluoromethyl)benzene] | 7560 | 170
COC1C(n2cc(-c3ncc(C)s3)nn2)[C@@H](O)C(CO)O[C@H]1c1ccnn1-c1cc(Cl)ccc1C(F)(F)F (stereo partly drawn) [Example 3, 5-Chloro-1-{5-{3-deoxy-3-[4-(5-methylthiazol-2-yl)-1H-1,2,3-triazol-1-yl]-2-O-methyl-β-D-galactopyranosyl}-1H-1,2-pyrazol-1-yl}-2-(trifluoromethyl)benzene] | 440 | 470
COC1C(n2cc(-c3nc(C)cs3)nn2)[C@@H](O)C(CO)O[C@H]1c1ccnn1-c1cc(Cl)ccc1C(F)(F)F (stereo partly drawn) [Example 4, 5-Chloro-1-{5-{3-deoxy-3-[4-(4-methylthiazol-2-yl)-1H-1,2,3-triazol-1-yl]-2-O-methyl-β-D-galactopyranosyl}-1H-1,2-pyrazol-1-yl}-2-(trifluoromethyl)benzene] | 3260 | 260
OCC1O[C@@H](c2ccnn2-c2cc(Cl)ccc2C(F)(F)F)C(O)C(n2cc(-c3nccs3)nn2)[C@H]1O (stereo partly drawn) [Example 5, 5-Chloro-1-{5-{3-deoxy-3-[4-(2-thiazolyl)-1H-1,2,3-triazol-1-yl]-β-D-galactopyranosyl}-1H-1,2-pyrazol-1-yl}-2-(trifluoromethyl)benzene] | 4830 | 210
Nc1nc(-c2cn(C3C(O)[C@H](c4ccnn4-c4cc(Cl)ccc4C(F)(F)F)OC(CO)[C@@H]3O)nn2)cs1 (stereo partly drawn) [Example 6, 1-{5-{3-[4-(2-Aminothiazol-4-yl)-1H-1,2,3-triazol-1-yl]-3-deoxy-β-D-galactopyranosyl}-1H-1,2-pyrazol-1-yl}-5-chloro-2-(trifluoromethyl)benzene] | 10800 | 120
OCC1O[C@@H](c2ccnn2-c2cc(Cl)ccc2C(F)(F)F)C(O)C(n2cc(-c3csc(O)n3)nn2)[C@H]1O (stereo partly drawn) [Example 7, 5-Chloro-1-{5-{3-deoxy-3-[4-(2-hydroxythiazol-4-yl)-1H-1,2,3-triazol-1-yl]-β-D-galactopyranosyl}-1H-1,2-pyrazol-1-yl}-2-(trifluoromethyl)benzene] | 5830 | 29
OCC1O[C@@H](c2ccnn2-c2cc(Cl)ccc2C(F)(F)F)C(O)C(n2cc(-n3ccc(Cl)n3)nn2)[C@H]1O (stereo partly drawn) [Example 8, 1-{5-{3-[4-(3-Chloro-1H-1,2-pyrazol-1-yl)-1H-1,2,3-triazol-1-yl]-3-deoxy-β-D-galactopyranosyl}-1H-1,2-pyrazol-1-yl}-5-chloro-2-(trifluoromethyl)benzene] | 880 | 270
Cc1cc([C@@H]2OC(CO)[C@H](O)C(n3cc(-c4nc(Cl)cs4)nn3)C2O)n(-c2cc(Cl)ccc2C(F)(F)F)n1 (stereo partly drawn) [Example 9, 1-{5-{3-[4-(4-Chlorothiazol-2-yl)-1H-1,2,3-triazol-1-yl]-3-deoxy-β-D-galactopyranosyl}-3-methyl-1H-1,2-pyrazol-1-yl}-5-chloro-2-(trifluoromethyl)benzene] | 370 | 37
OCC1O[C@@H](c2ccnn2-c2cc(Cl)ccc2C(F)(F)F)C(O)C(n2cc(-c3ncc(Cl)s3)nn2)[C@H]1O (stereo partly drawn) [Example 10, 1-{5-{3-[4-(5-Chlorothiazol-2-yl)-1H-1,2,3-triazol-1-yl]-3-deoxy-β-D-galactopyranosyl}-1H-1,2-pyrazol-1-yl}-5-chloro-2-(trifluoromethyl)benzene] | 330 | 43
OCC1O[C@@H](c2ccnn2-c2cc(Cl)ccc2C(F)(F)F)C(O)C(n2cc(-c3nc(Cl)cs3)nn2)[C@H]1O (stereo partly drawn) [Example 11, 1-{5-{3-[4-(4-Chlorothiazol-2-yl)-1H-1,2,3-triazol-1-yl]-3-deoxy-β-D-galactopyranosyl}-1H-1,2-pyrazol-1-yl}-5-chloro-2-(trifluoromethyl)benzene] | 430 | 48
COC1C(n2cc(-c3ncc(Cl)s3)nn2)[C@@H](O)C(CO)O[C@H]1c1ccnn1-c1cc(Cl)ccc1C(F)(F)F (stereo partly drawn) [Example 12, 1-{5-{3-[4-(5-Chlorothiazol-2-yl)-1H-1,2,3-triazol-1-yl]-3-deoxy-2-O-methyl-β-D-galactopyranosyl}-1H-1,2-pyrazol-1-yl}-5-chloro-2-(trifluoromethyl)benzene] | 390 | 24
COC1C(n2cc(-c3nc(Cl)cs3)nn2)[C@@H](O)C(CO)O[C@H]1c1cc(C)nn1-c1cc(Cl)ccc1C(F)(F)F (stereo partly drawn) [Example 13, 1-{5-{3-[4-(4-Chlorothiazol-2-yl)-1H-1,2,3-triazol-1-yl]-3-deoxy-2-O-methyl-β-D-galactopyranosyl}-3-methyl-1H-1,2-pyrazol-1-yl}-5-chloro-2-(trifluoromethyl)benzene] | 290 | 36
COC1C(n2cc(-c3nccs3)nn2)[C@@H](O)C(CO)O[C@H]1c1cc(C)nn1-c1cc(Cl)ccc1C(F)(F)F (stereo partly drawn) [Example 14, 5-Chloro-1-{5-{3-deoxy-2-O-methyl-3-[4-(2-thiazolyl)-1H-1,2,3-triazol-1-yl]-β-D-galactopyranosyl}-3-methyl-1H-1,2-pyrazol-1-yl}-2-(trifluoromethyl)benzene] | 5200 | 150
COC1C(n2cc(-c3nc(Cl)cs3)nn2)[C@@H](O)C(CO)O[C@H]1c1cc(C)nn1-c1ccc2nc(C)sc2c1 (stereo partly drawn) [Example 15, 1-{5-{3-[4-(4-Chlorothiazol-2-yl)-1H-1,2,3-triazol-1-yl]-3-deoxy-2-O-methyl-β-D-galactopyranosyl}-3-methyl-1H-1,2-pyrazol-1-yl}-2-methylbenzothiazole] | 2000 | 67

Other lines, results leading:

Kd [1] [nM] | Kd [2] [nM] | SMILES
1500 | 38 | COC1C(n2cc(-c3nc(Cl)cs3)nn2)[C@@H](O)C(CO)O[C@H]1c1ccnn1-c1ccc2nc(C)sc2c1 (stereo partly drawn) [Example 16, 1-{5-{3-[4-(4-Chlorothiazol-2-yl)-1H-1,2,3-triazol-1-yl]-3-deoxy-2-O-methyl-β-D-galactopyranosyl}-1H-1,2-pyrazol-1-yl}-2-methylbenzothiazole]
880 | 240 | CCOC(=O)c1cc([C@@H]2OC(CO)[C@H](O)C(n3cc(-c4nc(Cl)cs4)nn3)C2OC)n(-c2cc(Cl)ccc2C(F)(F)F)n1 (stereo partly drawn) [Example 17, 1-{5-{3-[4-(4-Chlorothiazol-2-yl)-1H-1,2,3-triazol-1-yl]-3-deoxy-2-O-methyl-β-D-galactopyranosyl}-3-ethoxycarbonyl-1H-1,2-pyrazol-1-yl}-5-chloro-2-(trifluoromethyl)benzene]
320 | 420 | COC1C(n2cc(-c3nc(Cl)cs3)nn2)[C@@H](O)C(CO)O[C@H]1c1cc(C(=O)O)nn1-c1cc(Cl)ccc1C(F)(F)F (stereo partly drawn) [Example 18, 1-{3-Carboxy-5-{3-[4-(4-chlorothiazol-2-yl)-1H-1,2,3-triazol-1-yl]-3-deoxy-2-O-methyl-β-D-galactopyranosyl}-1H-1,2-pyrazol-1-yl}-5-chloro-2-(trifluoromethyl)benzene]
280 | 43 | OCC1O[C@@H](c2ccnn2-c2cc(Br)ccc2C(F)(F)F)C(O)C(n2cc(-c3nc(Cl)cs3)nn2)[C@H]1O (stereo partly drawn) [Example 19, 5-Bromo-1-{5-{3-[4-(4-chlorothiazol-2-yl)-1H-1,2,3-triazol-1-yl]-3-deoxy-β-D-galactopyranosyl}-1H-1,2-pyrazol-1-yl}-2-(trifluoromethyl)benzene]
410 | 31 | COC1C(n2cc(-c3nc(Cl)cs3)nn2)[C@@H](O)C(CO)O[C@H]1c1ccnn1-c1cc(Br)ccc1C(F)(F)F (stereo partly drawn) [Example 20, 5-Bromo-1-{5-{3-[4-(4-chlorothiazol-2-yl)-1H-1,2,3-triazol-1-yl]-3-deoxy-2-O-methyl-β-D-galactopyranosyl}-1H-1,2-pyrazol-1-yl}-2-(trifluoromethyl)benzene]
1100 | 35 | COC1C(n2cc(-c3nc(Cl)cs3)nn2)[C@@H](O)C(CO)O[C@H]1c1ccnn1-c1cc(Cl)c(Cl)cc1C(F)(F)F (stereo partly drawn) [Example 21, 1-{5-{3-[4-(4-Chlorothiazol-2-yl)-1H-1,2,3-triazol-1-yl]-3-deoxy-2-O-methyl-β-D-galactopyranosyl}-1H-1,2-pyrazol-1-yl}-4,5-dichloro-2-(trifluoromethyl)benzene]
850 | 43 | COC1C(n2cc(-c3nc(Cl)cs3)nn2)[C@@H](O)C(CO)O[C@H]1c1ccnn1-c1cc(Cl)c(F)cc1C(F)(F)F (stereo partly drawn) [Example 22, 1-{5-{3-[4-(4-Chlorothiazol-2-yl)-1H-1,2,3-triazol-1-yl]-3-deoxy-2-O-methyl-β-D-galactopyranosyl}-1H-1,2-pyrazol-1-yl}-5-chloro-4-fluoro-2-(trifluoromethyl)benzene]
290 | 24 | COC1[C@@H](n2cc(-c3nc(Cl)cs3)nn2)[C@@H](O)C(CO)O[C@H]1c1ccnn1-c1cc(Br)c(F)cc1C(F)(F)F (stereo partly drawn) [Example 23, 5-Bromo-1-{5-{3-[4-(4-chlorothiazol-2-yl)-1H-1,2,3-triazol-1-yl]-3-deoxy-2-O-methyl-β-D-galactopyranosyl}-1H-1,2-pyrazol-1-yl}-4-fluoro-2-(trifluoromethyl)benzene]
